This is an account of results in patent US7244692B2, “Substituted benzoylcyclohexane diones for use as herbicides” (Bayer Aktiengesellschaft, priority 1999, dated 2007).

Read-outs that look alike come from different tables or passages of the source.

Data set [1] in a line: logP determination by HPLC, reverse-phase column (C 18), EEC Directive 79/831 Annex V.A8. The format is physicochemical. How it is done: Temperature: 43° C. • (a) Mobile phases for the determination in the acidic range: 0.1% aqueous phosphoric acid, acetonitrile; linear gradient from 10% acetonitrile to 90% acetonitrile—the corresponding test results in Table 1 are labelled ^a). • (b) Mobile phases for the determination in the neutral range: 0.01 molar aqueous phosphate buffer solution, acetonitrile; linear gradient from 10% acetonitrile to 90% acetonitrile—the corresponding test results in Table 1 are labelled ^b).

Data set [2] relates to weeds. The data set is described as follows: Pre-Emergence Test (Example A). The format is in vivo. Particulars: soil sprayed 24 hours after sowing, rated after three weeks. The method, then: (§1) • Solvent: 5 parts by weight of acetone • Emulsifier: 1 part by weight of alkylaryl polyglycol ether
(§2) To produce a suitable preparation of active compound, 1 part by weight of active compound is mixed with the stated amount of solvent, the stated amount of emulsifier is added and the concentrate is diluted with water to the desired concentration.
Seeds of the test plants are sown in normal soil. After 24 hours, the soil is sprayed with the preparation of active compound such that the particular amount of active compound desired is applied per unit area. The concentration of active compound in the spray liquor is chosen such that the particular amount of active compound desired is applied in 1000 litres of water per hectare.
After three weeks, the degree of damage to the plants is rated in % damage in comparison to the development of the untreated control. The figures denote: • 0%=no effect (like untreated control) • 100%=total destruction

For data set [3], the system named is weeds. As to the kind of experiment: Post-Emergence Test (Example B). In kind it is in vivo. Conditions: test plants of 5-15 cm sprayed, rated after three weeks. How it is done: as §1, §2
Test plants of a height of 5-15 cm are sprayed with the preparation of active compound such that the particular amounts of active compound desired are applied per unit area. The concentration of the spray liquor is chosen such that the particular amounts of active compound desired are applied in 1000 l of water/ha.
After three weeks, the degree of damage to the plants is rated in % damage in comparison to the development of the untreated control.
The figures denote: • 0%=no effect (like untreated control) • 100%=total destruction

Where [4] appears, read: labelled a): acidic range, 0.1% aqueous phosphoric acid/acetonitrile, linear gradient 10% to 90% acetonitrile, 43° C.
[5] abbreviates: no a)/b) label printed, mobile phase not given.

For the molecule `COC(=O)c1ccc(Cl)c(CN2CCCN(C)C2=O)c1Cl` [IV-6], in data set [1] (setting [4]), the logP result is “logP = 2.07^a)”.
For `COC(=O)c1ccc(Cl)c(CN2CCN(CC(C)C)C2=O)c1Cl` [IV-16], the logP result in data set [1] (setting [5]) is “logP = 2.95”.
Turning to `COC(=O)c1ccc(Cl)c(CN2CCN(C)C2=O)c1OC` [IV-5], the logP result in data set [1] (setting [4]) was “logP = 1.92^a)”.
In the case of `CCCCN1CCN(Cc2c(Cl)ccc(C(=O)C3C(=O)CCCC3=O)c2Cl)C1=O` [Example 47], the logP result in data set [1] is “logP = 3.08^a)”.
The same measure, in the same setting: the value for `CCCN1CCN(Cc2c(Cl)ccc(C(=O)C3C(=O)CCCC3=O)c2Cl)C1=O` [Example 46] was “logP = 2.69^a)”; that for `CCCN1CCCNC1=O` [(VI-15)] was “logP = 0.76^a)”.
For `COC(=O)c1ccc(Cl)c(CN2CCN(C(C)C)C2=O)c1Cl` [IV-13], the logP result in data set [1] (setting [5]) was “logP = 2.56”.
On to `CCN1CCN(Cc2cc(C(F)(F)F)ccc2C(=O)C2C(=O)CCCC2=O)C1=O` [Example 25], for which the logP entry in data set [1] is on record as “logP = 2.68^a)”.
Consider `CC1CC(=O)C(C(=O)c2ccc(Cl)c(CN3CCCN(C)C3=O)c2Cl)C(=O)C1` (stereo not shown) [Example 2], for which the logP result in data set [1] (setting [4]) was “logP = 2.55^a)”. Also, the “activity against weeds (degree of damage)” value (“activity against weeds” for short) in data set [2] and in data set [3] was “strong activity against weeds” each time.
For the molecule `CC(C)C1CC(=O)C(C(=O)c2ccc(Cl)c(CN3CCCN(C)C3=O)c2Cl)C(=O)C1` (stereo not shown) [Example 5], the logP result in data set [1] (setting [4]) was “logP = 3.22^a)”. In data set [3], the “activity against weeds” value is “strong activity against weeds”.
For `CCN1CCN(Cc2cc(C(F)(F)F)ccc2C(=O)OC)C1=O` [IV-11], in data set [1] (setting [4]), the logP entry is “logP = 2.62^a)”.
Consider `CN1CCN(Cc2c(F)ccc(C(=O)C3C(=O)CCCC3=O)c2Cl)C1=O` [Example 24], for which, in data set [1] (setting [4]), the logP entry is “logP = 1.96^a)”. In addition, the “activity against weeds” value in data set [2] and in data set [3] was “strong activity against weeds” in each case.
Regarding `COC(=O)c1ccc(S(C)(=O)=O)c(CN2CCN(C)C2=O)c1Cl` [IV-4], the logP result in data set [1] (setting [4]) was “logP = 1.55^a)”.
As for `CCN1CCN(Cc2c(Cl)ccc(C(=O)C3C(=O)CC4(CCC4)CC3=O)c2Cl)C1=O` [Example 21], the logP entry in data set [1] was “logP = 3.15^a)”.
`CN1CCCN(Cc2c(Cl)ccc(C(=O)C3C(=O)CCC(C)(C)C3=O)c2Cl)C1=O` (stereo not shown) [Example 4]: the logP result in data set [1] (setting [4]) is “logP = 2.89^a)”. The “activity against weeds” value in data set [2] and in data set [3] was “strong activity against weeds” each time.
With `CN1CCCN(Cc2c(Cl)ccc(C(=O)C3C(=O)CC(C)(C)CC3=O)c2Cl)C1=O` [Example 3], the logP result in data set [1] (setting [4]) is “logP = 2.79^a)”. The “activity against weeds” value in data set [2] and in data set [3] was “strong activity against weeds” throughout.
For `CN1CCN(Cc2c(Cl)ccc(C(=O)C3C(=O)CC(c4ccccc4)CC3=O)c2Cl)C1=O` (stereo not shown) [Example 11], the logP result in data set [1] (setting [4]) is on record as “logP = 3.10^a)”. Moreover, in data set [3], the “activity against weeds” value is listed as “strong activity against weeds”.
Consider `COC(=O)c1ccc(Cl)c(CN2CCCN(C)C2=O)c1OC` [IV-10], for which, in data set [1] (setting [4]), the logP entry is listed as “logP = 2.03^a)”.
Take `CN1CCCN(Cc2c(Cl)ccc(C(=O)C3C(=O)CC(c4ccccc4)CC3=O)c2Cl)C1=O` (stereo not shown) [Example 6]: the logP entry in data set [1] (setting [4]) is “logP = 3.21^a)”. The “activity against weeds” value in data set [3] is on record as “strong activity against weeds”.
Take `CN1CCN(Cc2cc(C(F)(F)F)ccc2C(=O)C2C(=O)CCCC2=O)C1=O` [Example 51]: the logP entry in data set [1] is recorded as “logP = 2.41^a)”.
As to `CCCN1CCN(Cc2c(Cl)ccc(C(=O)OC)c2Cl)C1=O` [IV-12], the logP entry in data set [1] (setting [5]) was “logP = 2.62”.
Turning to `CN1CCCN(Cc2cc(C(F)(F)F)ccc2C(=O)C2C(=O)CCCC2=O)C1=O` [Example 49], the logP entry in data set [1] is given as “logP = 2.59^a)”.
The same measure, in the same setting: the value for `CCN1CCN(Cc2c(S(C)(=O)=O)ccc(C(=O)C3C(=O)CCCC3=O)c2Cl)C1=O` [Example 23] was “logP = 1.91^a)”.
In the case of `CCN1CCN(Cc2c(Cl)ccc(C(=O)C3C(=O)CC(c4ccccc4)CC3=O)c2Cl)C1=O` (stereo not shown) [Example 17], the logP result in data set [1] (setting [4]) is “logP = 3.38^a)”. Also, the “activity against weeds” value in data set [3] was “strong activity against weeds”.
Regarding `CN1CCN(Cc2c(S(C)(=O)=O)ccc(C(=O)C3C(=O)CCCC3=O)c2Cl)C1=O` [Example 22], the logP result in data set [1] is “logP = 1.70^a)”.
In the case of `CCN1CCN(Cc2c(Cl)ccc(C(=O)C3C(=O)CC(C)(C)CC3=O)c2Cl)C1=O` [Example 14], in data set [1] (setting [4]), the logP result is “logP = 2.96^a)”. The “activity against weeds” value in data set [3] is “strong activity against weeds”.
Take `CCCCN1CCN(Cc2c(Cl)ccc(C(=O)OC)c2Cl)C1=O` [IV-15]: the logP result in data set [1] (setting [5]) is reported as “logP = 3.0”.
As for `CCN1CCN(Cc2c(Cl)ccc(C(=O)C3C(=O)CC(C(C)C)CC3=O)c2Cl)C1=O` (stereo not shown) [Example 16], the logP entry in data set [1] (setting [4]) is “logP = 3.40^a)”. In data set [3], the “activity against weeds” value is recorded as “strong activity against weeds”.
As to `CN1CCCN(Cc2c(S(C)(=O)=O)ccc(C(=O)C3C(=O)CCCC3=O)c2Cl)C1=O` [Example 41], the logP entry in data set [1] is “logP = 1.73^a)”.
`CC(C)C1CC(=O)C(C(=O)c2ccc(Cl)c(CN3CCN(C)C3=O)c2Cl)C(=O)C1` (stereo not shown) [Example 10]: the logP result in data set [1] (setting [4]) is reported as “logP = 3.09^a)”. In data set [3], the “activity against weeds” value is on record as “strong activity against weeds”.
For `CN1CCN(Cc2c(Cl)ccc(C(=O)C3C(=O)CCC(C)(C)C3=O)c2Cl)C1=O` (stereo not shown) [Example 9], the logP result in data set [1] (setting [4]) was “logP = 2.75^a)”. The “activity against weeds” value in data set [2] and in data set [3] was “strong activity against weeds” each time.
Regarding `CCN1CCN(Cc2c(S(C)(=O)=O)ccc(C(=O)OC)c2Cl)C1=O` [IV-3], the logP result in data set [1] (setting [4]) is “logP = 1.55^a)”.
With `CN1CCN(Cc2c(Cl)ccc(C(=O)C3C(=O)CCCC3=O)c2Cl)C1=O` [Example 1, 2-[2,4-dichloro-3-[(3-methyl-2-oxo-imidazolidin-1-yl)-methyl]-benzoyl]-1,3-cyclohexanedione], the “activity against weeds” value in data set [2] and in data set [3] was “strong activity against weeds” throughout.
Regarding `CC1CC(=O)C(C(=O)c2ccc(Cl)c(CN3CCN(C)C3=O)c2Cl)C(=O)C1` (stereo not shown) [Example 7], the logP result in data set [1] (setting [4]) is given as “logP = 2.43^a)”. Besides, the “activity against weeds” value in data set [2] and in data set [3] was “strong activity against weeds” each time.
Regarding `COc1c(C(=O)C2C(=O)CCCC2=O)ccc(Cl)c1CN1CCN(C)C1=O` [Example 19], in data set [1], the logP result is “logP = 2.00^a)”.
In the case of `CCCN1CCNC1=O` [(VI-5)], in data set [1], the logP is reported as 0.55^a).
As to `CCN1CCN(Cc2c(Cl)ccc(C(=O)OC)c2Cl)C1=O` [IV-2], the logP entry in data set [1] (setting [4]) is listed as “logP = 2.26^a)”.
For the molecule `COc1c(C(=O)C2C(=O)CCCC2=O)ccc(Cl)c1CN1CCCN(C)C1=O` [Example 18], in data set [1] (setting [4]), the logP entry is “logP = 2.05^a)”. Moreover, the “activity against weeds” value in data set [2] and in data set [3] was “strong activity against weeds” throughout.
Consider `CCN1CCN(Cc2c(Cl)ccc(C(=O)C3C(=O)CC(C)CC3=O)c2Cl)C1=O` (stereo not shown) [Example 12], for which the logP result in data set [1] (setting [4]) is on record as “logP = 2.71^a)”. Moreover, the “activity against weeds” value in data set [2] and in data set [3] was “strong activity against weeds” in each case.
Consider `CN1CCN(Cc2c(Cl)ccc(C(=O)C3C(=O)CC(C)(C)CC3=O)c2Cl)C1=O` [Example 8], for which, in data set [1] (setting [4]), the logP entry is listed as “logP = 2.67^a)”. In addition, the “activity against weeds” value in data set [2] and in data set [3] was “strong activity against weeds” each time.
As for `CN1CCN(Cc2c(Cl)ccc(C(=O)C3C(=O)CC4(CCC4)CC3=O)c2Cl)C1=O` [Example 20], the logP result in data set [1] is listed as “logP = 2.83^a)”.
Same read-out and setting: in the case of `CCN1CCCCNC1=O` [(VI-30)] it was “logP = 1.09”.
Regarding `CCN1CCN(Cc2c(F)ccc(C(=O)C3C(=O)CCCC3=O)c2Cl)C1=O` [Example 50], the logP entry in data set [1] is reported as “logP = 2.18^a)”.
Still for that read-out and setting: in the case of `CC(C)CN1CCN(Cc2c(Cl)ccc(C(=O)C3C(=O)CCCC3=O)c2Cl)C1=O` [Example 48] it was “logP = 3.03^a)”.
As for `COC(=O)c1ccc(S(C)(=O)=O)cc1CBr` [V-6], the logP entry in data set [1] is reported as “logP = 1.87^a)”.
Same read-out and setting: the value for `COC(=O)c1ccc(S(C)(=O)=O)c(CBr)c1Cl` [V-2] was “logP = 2.33^a)”.
As to `CCN1CCN(Cc2c(Cl)ccc(C(=O)C3C(=O)CCC(C)(C)C3=O)c2Cl)C1=O` (stereo not shown) [Example 15], the logP entry in data set [1] is “logP = 3.07^a)”.
For `CCN1CCN(Cc2c(Cl)ccc(C(=O)C3C(=O)CCCC3=O)c2Cl)C1=O` [Example 13], in data set [1] (setting [4]), the logP result is recorded as “logP = 2.37^a)”. Moreover, the “activity against weeds” value in data set [2] and in data set [3] was “strong activity against weeds” in each case.
